Results as given in ChEMBL document CHEMBL1201862, “PubChem BioAssay data set” (2004).
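How tested: cells in 96-well plates exposed to compound for 48 hours at five concentrations. Abbreviation: GI50, concentration required for 50% inhibition of growth.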 Calls of active or inactive are those of the source. Rule as the data show it: active = GI50 up to about 1.1 µM and inactive = higher.

Tests used:
Assay in all cases: NCI tumour cell line growth inhibition, 48 h
786-0 = test system: 786-0
BT-549 = test system: BT-549
CAKI-1 = test system: CAKI-1
COLO 205 = test system: COLO 205
DU-145 = test system: DU-145
K562 = test system: K562
M14 = test system: M14
MDA-MB-435 = test system: MDA-MB-435
MOLT-4 = test system: MOLT-4
NCI-H226 = test system: NCI-H226
RXF 393 = test system: RXF 393
SF-268 = test system: SF-268
SK-MEL-2 = test system: SK-MEL-2
SN12C = test system: SN12C
SNB-19 = test system: SNB-19
SNB-75 = test system: SNB-75
TK-10 = test system: TK-10
UO-31 = test system: UO-31
HT-29 = test system: HT-29
SK-OV-3 = test system: SK-OV-3

Measured: GI50

N#Cc1c(N)c2c(c(-c3ccccc3)c1-c1ccccc1)C(=O)N(NC(=O)c1ccccc1)C2=O
inactive: 786-0 76.9 µM | BT-549 > 100 µM | CAKI-1 > 100 µM | COLO 205 > 100 µM | DU-145 > 100 µM | K562 96.8 µM | M14 > 100 µM | MDA-MB-435 74.3 µM | MOLT-4 40.6 µM | NCI-H226 > 100 µM | RXF 393 60 µM | SF-268 > 100 µM | SK-MEL-2 > 100 µM | SN12C > 100 µM | SNB-19 58.5 µM | SNB-75 > 100 µM | TK-10 > 100 µM | UO-31 41.9 µM

O=C1c2ccccc2C(=O)c2c(Nc3ccc4c5c(cccc35)C(=O)c3ccccc3-4)cccc21
inactive: 786-0 > 100 µM | BT-549 > 100 µM | CAKI-1 > 100 µM | DU-145 > 100 µM | HT-29 > 100 µM | K562 > 100 µM | M14 > 100 µM | MDA-MB-435 > 100 µM | MOLT-4 > 100 µM | NCI-H226 > 100 µM | RXF 393 > 100 µM | SF-268 > 100 µM | SK-MEL-2 > 100 µM | SN12C > 100 µM | SNB-19 > 100 µM | SNB-75 > 100 µM | TK-10 > 100 µM | UO-31 > 100 µM

COC(=O)/C=C/c1ccc2c(c1)CC1(C2)Cc2cc3c(cc2C1=O)CCC3 (centres undefined)
inactive: 786-0 27 µM | BT-549 > 100 µM | CAKI-1 36.2 µM | COLO 205 > 100 µM | DU-145 > 100 µM | K562 > 100 µM | M14 47 µM | MDA-MB-435 > 100 µM | MOLT-4 > 100 µM | NCI-H226 49.3 µM | RXF 393 24.5 µM | SF-268 46.2 µM | SK-MEL-2 > 100 µM | SN12C > 100 µM | SNB-19 31.6 µM | SNB-75 24.9 µM | TK-10 57.3 µM | UO-31 50.8 µM

Cc1ncc([N+](=O)[O-])n1CCN=[N+]=[N-]
inactive: 786-0 > 100 µM | BT-549 > 100 µM | CAKI-1 > 100 µM | COLO 205 > 100 µM | DU-145 > 100 µM | HT-29 > 100 µM | K562 > 100 µM | M14 > 100 µM | MDA-MB-435 > 100 µM | NCI-H226 > 100 µM | RXF 393 > 100 µM | SF-268 > 100 µM | SK-MEL-2 > 100 µM | SK-OV-3 > 100 µM | SN12C > 100 µM | SNB-19 > 100 µM | SNB-75 > 100 µM | TK-10 > 100 µM | UO-31 > 100 µM

CN(C)S(=O)(=O)Nc1ccccn1
inactive: 786-0 > 100 µM | BT-549 > 100 µM | CAKI-1 > 100 µM | COLO 205 > 100 µM | DU-145 > 100 µM | HT-29 > 100 µM | K562 > 100 µM | M14 > 100 µM | MDA-MB-435 > 100 µM | NCI-H226 > 100 µM | RXF 393 > 100 µM | SF-268 > 100 µM | SK-MEL-2 > 100 µM | SK-OV-3 > 100 µM | SN12C > 100 µM | SNB-19 > 100 µM | SNB-75 > 100 µM | TK-10 > 100 µM | UO-31 > 100 µM

CC(=O)C(CN1C(=O)c2ccccc2C1=O)C(C)=O
inactive: 786-0 > 100 µM | BT-549 > 100 µM | CAKI-1 > 100 µM | COLO 205 > 100 µM | DU-145 > 100 µM | HT-29 > 100 µM | K562 > 100 µM | M14 > 100 µM | MDA-MB-435 > 100 µM | NCI-H226 > 100 µM | RXF 393 23.1 µM | SF-268 > 100 µM | SK-MEL-2 > 100 µM | SK-OV-3 > 100 µM | SN12C > 100 µM | SNB-19 > 100 µM | SNB-75 > 100 µM | TK-10 > 100 µM | UO-31 > 100 µM

O=C1c2ccccc2CC12Cc1ccc3c(c1C2=O)CCCC3 (centres undefined)
inactive: 786-0 7.85 µM | BT-549 > 100 µM | COLO 205 13 µM | DU-145 > 100 µM | HT-29 6.49 µM | K562 21.6 µM | M14 8.61 µM | MDA-MB-435 21.7 µM | MOLT-4 4.35 µM | NCI-H226 24 µM | RXF 393 4.13 µM | SF-268 > 100 µM | SK-MEL-2 > 100 µM | SK-OV-3 > 100 µM | SN12C 14.1 µM | SNB-19 20.7 µM | SNB-75 6.52 µM | TK-10 > 100 µM | UO-31 9.27 µM

COc1ccc(-c2nnc3nc4ccccc4n3c2O)cc1
inactive: 786-0 > 100 µM | BT-549 > 100 µM | CAKI-1 > 100 µM | COLO 205 > 100 µM | DU-145 > 100 µM | HT-29 > 100 µM | M14 > 100 µM | MDA-MB-435 > 100 µM | MOLT-4 > 100 µM | NCI-H226 > 100 µM | RXF 393 7.19 µM | SF-268 > 100 µM | SK-MEL-2 > 100 µM | SN12C > 100 µM | SNB-19 > 100 µM | SNB-75 41.9 µM | TK-10 > 100 µM | UO-31 > 100 µM

[N-]=[N+]=CC(=O)CCC(=O)N(c1ccccc1)c1ccccc1
inactive: 786-0 > 10 µM | BT-549 > 10 µM | DU-145 > 10 µM | HT-29 > 10 µM | K562 > 10 µM | M14 > 10 µM | MDA-MB-435 > 10 µM | MOLT-4 > 10 µM | NCI-H226 > 10 µM | RXF 393 > 10 µM | SF-268 > 10 µM | SK-MEL-2 6.98 µM | SK-OV-3 > 10 µM | SN12C > 10 µM | SNB-19 > 10 µM | SNB-75 > 10 µM | TK-10 > 10 µM | UO-31 > 10 µM

N#C/C=C\c1ccc(-c2cc(C(F)(F)F)cc(C(F)(F)F)c2)o1
inactive: 786-0 27.2 µM | BT-549 36.7 µM | CAKI-1 35.3 µM | COLO 205 > 100 µM | DU-145 > 100 µM | HT-29 94.4 µM | K562 42.1 µM | M14 56.4 µM | MDA-MB-435 2.57 µM | MOLT-4 57.4 µM | NCI-H226 55.8 µM | RXF 393 44.6 µM | SF-268 25.9 µM | SK-MEL-2 15.6 µM | SK-OV-3 30.3 µM | SN12C 35.6 µM | SNB-19 30 µM | SNB-75 18.7 µM | UO-31 > 100 µM

COc1cc(OC)c2nc3occc3c(OC)c2c1
inactive: 786-0 96.4 µM | BT-549 > 100 µM | CAKI-1 77.4 µM | COLO 205 > 100 µM | DU-145 > 100 µM | HT-29 > 100 µM | M14 > 100 µM | MDA-MB-435 > 100 µM | MOLT-4 61.9 µM | NCI-H226 > 100 µM | RXF 393 80 µM | SF-268 > 100 µM | SK-MEL-2 > 100 µM | SK-OV-3 97.5 µM | SN12C 71.1 µM | SNB-19 66.4 µM | SNB-75 67.8 µM | TK-10 > 100 µM | UO-31 33.7 µM
